Entries after “also recorded” stand apart in the source; their conditions may differ.
How the values were obtained:
[1] = Solubility observed during purification attempts; format: physicochemical; conditions: mixture of stereoisomers
Description: Also, its immediate precursor BLAS-320(Ac) (1-(1-acetyl-3-acetylamino-5-carboxy-2-oxopyrrolidin-3-ylmethyl)pyridinium acetate) [drawing 7] was synthesized using different procedures.

[2] = test system: Renca cells (renal cell carcinoma); test: Effect of the isomers on in vivo tumour growth in mice challenged with Renca cells; conditions: for Inhibitory effect on in vivo Renca tumour growth (conclusion in words): 260 ng i.p. on days 6, 7 and 14, Balb/c mice; for Tumour surface, overall values (Mean) / Tumour surface, overall values (Median) / Tumour volume, overall values (Mean) / Tumour volume, overall values (Median): 260 ng/mouse i.p. on days 6, 7 and 14, s.c. Renca in Balb/c mice
Description: This assay was made in order to check the effect of each stereoisomer on in vivo tumour growth in mice challenged with Renca cells. Their effect was compared with placebo. The stereoisomers assayed were: • Isomer 1: 3R,5S-1-(3-Amino-5-carboxy-2-oxopyrrolidin-3-ylmethyl)pyridinium bromide hidrobromide (9b) • Isomer 2: 3R,5R-1-(3-Amino-5-carboxy-2-oxopyrrolidin-3-ylmethyl)pyridinium bromide hidrobromide (9c) • Isomer 3: 3S,5S-1-(3-Amino-5-carboxy-2-oxopyrrolidin-3-ylmethyl)pyridinium bromide hidrobromide (9a) • Isomer 4: 3 S,5R-1-(3-Amino-5-carboxy-2-oxopyrrolidin-3-ylmethyl)pyridinium bromide hidrobromide (9d)
Renca is a renal cell carcinoma originated in Balb/c mouse strain, and therefore syngeneic in mice with Balb/c genetic background [Melder R J et al., Cancer Immunol. Immunother., 2005, 54:535-547; Felluga B et al., 1969, J. Natl. Cancer Inst. 43:319-333]. Renca is considered a moderate immunogenic tumour and used as suitable model for testing immunointervention approaches [Salup R R, et al., 1992, The Journal of Urology, 147:1120-1123].
Renca cells (CLS, Eppelheim, Germany) were maintained in vitro by serial passages every 3-4 days. Cultures were performed with RPMI medium medium (RPMI, 10% foetal calf serum, 2 mM L-glutamine, non essential amino acids, 1 mM sodium pyruvate, 20 mM HEPES, 80 μg/mL gentamycin; all of them were purchased from Sigma, St. Louis, Mo., USA) by seeding 5×10^6 cells onto 75 cm^2 culture flasks. Tumour cells collected from 48 hour cultures upon trypsinization (Sigma, St. Louis, Mo., USA) were used as source of Renca cells for the studies described below.
Each isomer was tested at the dose levels of 260 ng administered on days 6, 7 and 14 after tumour inoculation.
The treatments were given by intraperitoneal route. The volume inoculated was 0.2 mL/animal. This route was chosen because it is the one described in the original method [Perez S, et al., 2003, Clinical Cancer Research. 9:5776-5785].
Tumours were established by subcutaneous inoculation in the right hind flank. Mice (Balb/c) were inoculated with 0.2 mL containing 105 viable Renca cells. The day of subcutaneous inoculation will be considered Day 0 of the test.
Balb/c mice inoculated with Renca cells were distributed into 5 experimental groups:
Mice were observed daily and the tumour size recorded twice a week. This was carried out by measuring two perpendicular diameters (L/W) with a calliper. These measures were used to obtain both tumour surface and volume:
Tumour surface=L×W (mm^2)
Tumour volume=L×W^2×½(mm^3)
Results were expressed as single values and/or as the mean±SD or median from each experimental group.
A case-control study was performed with treated and control mice in order to determine whether differences between isomers and administration of placebo were present. The data obtained (tumoral surface and volume) were tested for Normal distribution within the groups—Kolmogorov Smimov test p<0,05—. […] The U-test of Mann Withney was chosen for being one of the better known non-parametrical tests, anyway, results for this test are equivalent both to those of Wilcoxon's sum of ranges and Kruskal-Wallis two-groups test.
Due to the high dispersion of data, outlayers (animals beyond percentile 25 or above percentile 75 for tumour surface at day 25) were excluded of the study.

[3] = day 11 after tumour inoculation
[4] = day 14 after tumour inoculation
[5] = day 18 after tumour inoculation
[6] = day 21 after tumour inoculation
[7] = day 25 after tumour inoculation

Compound	Tumour surface, overall values (Mean) ([2]; day 0 after tumour inoculation)	Tumour surface, overall values (Median) ([2]; day 0 after tumour inoculation)	Tumour volume, overall values (Mean) ([2]; day 0 after tumour inoculation)	Tumour volume, overall values (Median) ([2]; day 0 after tumour inoculation)	Tumour surface, overall values (Mean) [2, 3]	Tumour surface, overall values (Median) [2, 3]	Tumour volume, overall values (Mean) [2, 3]	Tumour volume, overall values (Median) [2, 3]	Tumour surface, overall values (Mean) [2, 4]	Tumour surface, overall values (Median) [2, 4]	Tumour volume, overall values (Mean) [2, 4]	Tumour volume, overall values (Median) [2, 4]	Tumour surface, overall values (Mean) [2, 5]	Tumour surface, overall values (Median) [2, 5]	Tumour volume, overall values (Mean) [2, 5]	Tumour volume, overall values (Median) [2, 5]	Tumour surface, overall values (Mean) [2, 6]	Tumour surface, overall values (Median) [2, 6]	Tumour volume, overall values (Mean) [2, 6]	Tumour volume, overall values (Median) [2, 6]	further results
CC(=O)NC1(C[n+]2ccccc2)CC(C(=O)O)N(C(C)=O)C1=O (stereo not drawn) [BLAS-320(Ac), 1-(1-acetyl-3-acetylamino-5-carboxy-2-oxopyrrolidin-3-ylmethyl)pyridinium acetate]																					Solubility (in words) [1]: only soluble in water and methanol
Br.N[C@]1(C[n+]2ccccc2)C[C@@H](C(=O)O)NC1=O.[Br-] (single isomer, unassigned; isomer 3) [isomer 3, 3S,5S-1-(3-Amino-5-carboxy-2-oxopyrrolidin-3-ylmethyl)pyridinium bromide hidrobromide]	0 mm^2	0 mm^2	0 mm^3	0 mm^3	0.3 mm^2	0 mm^2	0.28 mm^3	0 mm^3	7.5 mm^2	4 mm^2	14.55 mm^3	4 mm^3	31 mm^2	18 mm^2	101.4 mm^3	36 mm^3	64.57 mm^2	45.5 mm^2	278.15 mm^3	148.75 mm^3	Inhibitory effect on in vivo Renca tumour growth (conclusion in words) [2]: inhibit the in vivo growth of the renal cell carcinoma (Renca); Tumour surface, overall values (Mean) [2, 7]: 106.17 mm^2; Tumour surface, overall values (Median) [2, 7]: 90 mm^2; Tumour volume, overall values (Mean) [2, 7]: 557.18 mm^3; Tumour volume, overall values (Median) [2, 7]: 405 mm^3; p of differences in Renca tumour growth rate vs. placebo (surface or volume), Mann-Whitney U test ([2]; days 18th and 25th of tumour development, 260 ng i.p.): < 0.05
Br.N[C@@]1(C[n+]2ccccc2)C[C@H](C(=O)O)NC1=O.[Br-] (single isomer, unassigned; isomer 2) [isomer 2, 3R,5R-1-(3-Amino-5-carboxy-2-oxopyrrolidin-3-ylmethyl)pyridinium bromide hidrobromide]	0 mm^2	0 mm^2	0 mm^3	0 mm^3	1.6 mm^2	0 mm^2	2.34 mm^3	0 mm^3	14.46 mm^2	9 mm^2	32.05 mm^3	13.5 mm^3	55.14 mm^2	42 mm^2	217.43 mm^3	126 mm^3	96.86 mm^2	77 mm^2	453.89 mm^3	278.75 mm^3	Tumour surface, overall values (Mean) [2, 7]: 156.53 mm^2; Tumour surface, overall values (Median) [2, 7]: 140 mm^2; Tumour volume, overall values (Mean) [2, 7]: 938.48 mm^3; Tumour volume, overall values (Median) [2, 7]: 613.25 mm^3; Deaths of mice in treatment group ([2]; second week after tumour inoculation, 260 ng i.p., animals excluded): Two mice from isomer 2 group died for unknown causes
Br.N[C@@]1(C[n+]2ccccc2)C[C@@H](C(=O)O)NC1=O.[Br-] (single isomer, unassigned; isomer 1) [isomer 1, 3R,5S-1-(3-Amino-5-carboxy-2-oxopyrrolidin-3-ylmethyl)pyridinium bromide hidrobromide]	0 mm^2	0 mm^2	0 mm^3	0 mm^3	1.2 mm^2	0 mm^2	1.73 mm^3	0 mm^3	14.1 mm^2	12.5 mm^2	36.88 mm^3	22.75 mm^3	44.07 mm^2	36 mm^2	174.37 mm^3	108 mm^3	86.6 mm^2	81 mm^2	429.07 mm^3	329.25 mm^3	Tumour surface, overall values (Mean) [2, 7]: 149.97 mm^2; Tumour surface, overall values (Median) [2, 7]: 160.5 mm^2; Tumour volume, overall values (Mean) [2, 7]: 895.58 mm^3; Tumour volume, overall values (Median) [2, 7]: 907.5 mm^3
Br.N[C@]1(C[n+]2ccccc2)C[C@H](C(=O)O)NC1=O.[Br-] (single isomer, unassigned; isomer 4) [isomer 4, 3 S,5R-1-(3-Amino-5-carboxy-2-oxopyrrolidin-3-ylmethyl)pyridinium bromide hidrobromide]	0 mm^2	0 mm^2	0 mm^3	0 mm^3	0 mm^2	0 mm^2	0 mm^3	0 mm^3	2.87 mm^2	0 mm^2	4.73 mm^3	0 mm^3	15.47 mm^2	9 mm^2	40.67 mm^3	13.5 mm^3	37.37 mm^2	25 mm^2	126.42 mm^3	62.5 mm^3	Inhibitory effect on in vivo Renca tumour growth (conclusion in words) [2]: inhibit the in vivo growth of the renal cell carcinoma (Renca); also recorded: highest inhibitory effect on Renca tumour growth; p of differences in Renca tumour growth rate vs. placebo (surface or volume), Mann-Whitney U test ([2]; all days scored after the day 14th of tumour development, 260 ng i.p.): < 0.01; Tumour surface, overall values (Mean) [2, 7]: 81.3 mm^2; Tumour surface, overall values (Median) [2, 7]: 63.5 mm^2; Tumour volume, overall values (Mean) [2, 7]: 372.82 mm^3; Tumour volume, overall values (Median) [2, 7]: 238.25 mm^3

— patent US20070249678A1, “SYNTHESIS AND USES OF PYROGLUTAMIC ACID DERIVATIVES” (Prodimed, S.A., priority 2006, published 2007)
